{"source": "patent US20170128518A1", "about": "“METHODS AND MATERIALS FOR IDENTIFYING AND TREATING MAMMALS RESISTANT TO PROTEASOME INHIBITOR TREATMENTS” (Mayo Foundation for Medical Education and Research, priority 2014, published 2017)", "key": {"[1]": {"target": "T1, proteasome b2 subunit (trypsin-like activity) (Homo sapiens, UniProt Q99436)", "T1 construct": "Cells were lysed at 4×10^6 cells/ml in proteasomal activity assay buffer; endogenous in cells; host or cells: BCWM.1 and BCWM.1/BR (lysates)", "T1 sequence (Q99436 44-277)": "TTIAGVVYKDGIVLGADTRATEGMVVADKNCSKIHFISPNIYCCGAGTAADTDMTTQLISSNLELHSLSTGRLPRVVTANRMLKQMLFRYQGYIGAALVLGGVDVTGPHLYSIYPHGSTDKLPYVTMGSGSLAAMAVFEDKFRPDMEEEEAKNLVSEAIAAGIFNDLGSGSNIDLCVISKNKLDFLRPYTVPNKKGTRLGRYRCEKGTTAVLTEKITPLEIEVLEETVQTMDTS", "experiment": "Proteasomal activity assay, trypsin-like (LRR-AMC), WM cells", "format": "biochemical", "settings": "10 nM; BCWM.1 and BCWM.1/BR shown", "experimental": "(§1) FIGS. 17A-17D are a series of graphs plotting the effects of bortezomib (10 nM), carfilzomib (10 nM) and b-AP15 (10 nM) on caspase-like and trypsin-like proteasomal activities, as assessed in three WT and three BR WM cell lines in vitro using the fluorogenic substrates LLE-AMC (caspase-like activity) and LRR-AMC (trypsin-like activity). Reactions were incubated at 37° C. for 1 hour and the fluorescence was measured at 360/460 and expressed as relative fluorescence units (RFU), using BioTek synergy HT plate reader. Data from two representative cell lines (BCWM.1 and its BR subclone) are shown.\n(§2) Cells were lysed at 4×10^6 cells/ml in proteasomal activity assay buffer [assay buffer; 25 mmol/1 HEPES buffer, pH7.5 containing 0.5 mmol/1 EDTA, 0.05% Nonidet P-40, 0.01% sodium dodecyl sulfate (SDS)] and immediately used in the assay. Enzyme reactions were performed in 96-well plates with 100 μl of final volume containing […] fluorogenic peptide substrates. The substrates used were LLVY-AMC for chymotrypsin like activity, LLE-AMC for caspase-like activity and LRR-AMC for trypsin-like activity. Reactions were incubated at 37° C. for 1 hour and fluorescence was measured at 360/460 using a BioTek synergy HT plate reader (BioTek, Winooski, Vt.)."}, "BCWM.1 cells": {"tested_on": "BCWM.1 cells", "experiment": "Annexin-V apoptosis assay, BCWM.1", "format": "cell-based, human", "experimental": "(§3) FIG. 18 is a series of representative heat density plots showing Annexin-V staining in BCWM.1 and BCWM.1/BR±b-AP15 treatment, indicating about 46% cell death in BCWM.1 cells (top panels) and about 42% cell death in BCWM.1/BR cells (bottom panels).\n(§4) Apoptosis was measured using the Annexin V binding assay kit from BD Biosciences according to the manufacturer's instructions. Briefly, at the end of the treatment, cells were washed with PBS and 1×10^6 cells were re-suspended in 100 μl of binding buffer. Fluorescein isothiocycanate (FITC)-labelled Annexin V (5 μl) and propidium iodide (10μ were added to each sample and incubated in the dark for 15 minutes at room temperature. The cells were subsequently analyzed by flow cytometry using BD Accuri, the C6 flow cytometer and its software. Data from 10,000 events per sample were collected and analyzed."}, "RPCI-WM1": {"tested_on": "RPCI-WM1", "experiment": "MTS viability assay, RPCI-WM1", "format": "cell-based, human", "settings": "72-h MTS assay", "experimental": "(§5) Twenty thousand cells/200 μl in quadruplicates were incubated with serially diluted b-AP15 (1-1000 nmol/l) in 96-well plates at 37° C. for 72 hours. MTS (3-(4,5-dimethylthiazol-2-yl)-5-(3-carboxymethoxyphenyl)-2-(4-sulfophenyl)-2H-tetrazolium) reagent (Molecular Probes, Eugene, Oreg.) was added at 40 μl/well and the plates were further incubated at 37° C. for 3 hours and the developed color was read at 490 nm using a BioTek synergy HT plate reader against blanks with no cells."}, "[2]": {"target": "T2, proteasome b1 subunit (caspase-like activity) (Homo sapiens, UniProt P28072)", "T2 construct": "Cells were lysed at 4×10^6 cells/ml in proteasomal activity assay buffer; endogenous in cells; host or cells: BCWM.1 and BCWM.1/BR (lysates)", "T2 sequence (P28072 whole entry)": "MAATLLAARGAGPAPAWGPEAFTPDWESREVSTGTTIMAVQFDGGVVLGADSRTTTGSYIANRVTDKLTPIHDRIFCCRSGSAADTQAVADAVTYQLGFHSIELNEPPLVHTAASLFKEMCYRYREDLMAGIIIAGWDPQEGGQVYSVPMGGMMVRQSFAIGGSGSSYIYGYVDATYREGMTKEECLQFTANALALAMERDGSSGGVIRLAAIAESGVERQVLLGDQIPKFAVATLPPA", "experiment": "Proteasomal activity assay, caspase-like (LLE-AMC), WM cells", "format": "biochemical", "settings": "10 nM; BCWM.1 and BCWM.1/BR shown", "experimental": "as §1, §2"}, "MWCL-1 cells": {"tested_on": "MWCL-1 cells", "experiment": "MTS viability assay, MWCL-1", "format": "cell-based, human", "settings": "72-h MTS assay", "experimental": "as §5"}, "[3]": {"tested_on": "WM cell lines (WT and BR)", "experiment": "Annexin-V apoptosis assay, WM cell lines", "format": "cell-based, human", "settings": "0.64 μmol/l, 12 hours", "experimental": "FIGS. 12A-12D are a series of graphs and Western blots showing b-AP15 induction of tumor-specific apoptosis in WM cell lines and primary patient-derived WM cells. FIG. 12A is a graph plotting cell death as a percentage of control cell death for all available WM cell lines (n=6, WT and BR derivatives) after treatment with the indicated concentrations of b-AP15, followed by staining with annexin-V and propidium iodide and then flow cytometry to examine apoptosis. […] Each experiment was conducted a minimum of three times with control cells (no drug treatment) showing a viability ([…] and propidium iodide-negative population) of >85%. Following treatment, the percentage of cells affected by b-AP15 was calculated by normalizing data from treated cells relative to the control (untreated) cells. […]\nas §4, with “Briefly, at the end of the treatment, cells were washed with PBS and 1×10^6 cells were re-suspended in 100 μl of binding buffer.” left out"}, "BCWM.1/BR cells": {"tested_on": "BCWM.1/BR cells", "experiment": "Annexin-V apoptosis assay, BCWM.1/BR", "format": "cell-based, human", "experimental": "as §3, §4"}, "WM cells": {"tested_on": "WM cells", "experiment": "Immunoblot analysis of WM cells", "format": "cell-based, human", "experimental": "Total protein extracts were made using radioimmunoprecipitation assay lysis buffer (50 mmol/1 Tris containing 150 mmol/1 NaCl, 0.1% SDS, 1% TritonX-100, 1% sodium deoxycholate, pH 7.2) with 0.2% protease and phosphatase inhibitor cocktail (Sigma, St. Louis, Mo.) on ice for 40 minutes, vortexing for 5 seconds every 10 minutes. Following centrifugation at 18,400 g for 20 minutes, the supernatant was collected and used for Western blot analyses. Protein content in the extracts was measured by bicinchoninic acid protein assay reagent. Aliquots of 20 μg of total protein were boiled in Laemmli sample buffer, loaded onto 10% SDS-PAGE gels, and transferred onto a nitrocellulose membrane. Membranes were blocked for 1 hour in TBS/Tween 20 [TTBS] containing 1% nonfat dried milk and 1% BSA. Incubation with primary antibodies was done overnight at 4° C., followed by washing 3× with TTBS and incubation for 1 hour with HRP-conjugated secondary antibody. The blots were developed using chemiluminescence (Thermo Scientific, Rockford, Ill.)."}}, "note": "“Also recorded” adds a separate entry of the source."}
{"compound": "C=CC(=O)N1C/C(=C\\c2ccc([N+](=O)[O-])cc2)C(=O)/C(=C/c2ccc([N+](=O)[O-])cc2)C1", "note": "[b-AP15]", "values": [{"measurement": "trypsin-like proteasomal activity", "setting": "[1]", "result": "no change in trypsin-like activity"}, {"measurement": "cell death (Annexin-V staining)", "setting": "BCWM.1 cells", "result": "about 46%"}, {"measurement": "IC50", "setting": "RPCI-WM1", "result": 16, "unit": "nM"}, {"measurement": "caspase-like proteasomal activity", "setting": "[2]", "result": "no change in caspase-like activity"}, {"measurement": "IC50", "setting": "MWCL-1 cells", "result": 7, "unit": "nM"}, {"measurement": "WM cells experiencing apoptosis", "setting": "[3]", "result": "approximately 50%"}, {"measurement": "cell death (Annexin-V staining)", "setting": "BCWM.1/BR cells", "result": "about 42%"}, {"measurement": "BCL2 protein", "setting": "WM cells", "result": "No change"}, {"measurement": "p-EIF2a expression", "setting": "WM cells", "result": "did not appear to change"}, {"measurement": "phosphorylated MAPK14 (p38) protein", "setting": "WM cells; 6-hour treatment", "result": "significant increase"}, {"measurement": "RELA nuclear protein levels", "setting": "WM cells; 6 hours, BCWM.1 shown", "result": "marked reduction; also recorded: markedly reduced"}, {"measurement": "MYC total and nuclear expression", "setting": "WM cells; BCWM.1", "result": "reduced total and nuclear expression"}, {"measurement": "EIF2AK3 (PERK) levels", "setting": "WM cells; BR models", "result": "decreased EIF2AK3 levels"}, {"measurement": "USP14 and UCHL5 protein expression", "setting": "WM cells; WM cell lines (WT and BR), 0.5 and 1 μmol/l", "result": "no observable shift"}, {"measurement": "PARP1 cleavage", "setting": "WM cells; WM cell lines and primary WM tumor cells", "result": "confirming execution of apoptosis"}, {"measurement": "TP53 protein", "setting": "WM cells; WT and BR WM cells", "result": "marginal increase"}, {"measurement": "HSPA1A protein", "setting": "WM cells; all cell lines", "result": "further induced"}, {"measurement": "ERN1a, XBP1u and XBP1s protein", "setting": "WM cells; all models tested", "result": "significantly induced"}, {"measurement": "total ubiquitinated cellular protein content", "setting": "WM cells; dose-dependent", "result": "increasing amounts of high molecular weight polyubiquitinated conjugates"}, {"measurement": "USP14 and UCHL5 protein expression", "setting": "WM cells; primary CD19+/CD138+ WM cells, 0.5 μmol/l", "result": "did not change"}, {"measurement": "p-MAPK3/MAPK1 (ERK1/2)", "setting": "WM cells; wild type cell lines", "result": "increase"}]}
